Source: ChEMBL document CHEMBL4130634, “Discovery of Reversible DNA Methyltransferase and Lysine Methyltransferase G9a Inhibitors with Antitumoral in Vivo Efficacy” (J Med Chem, 2018)

Tests used:
MV4-11 [1] = experiment: Antitumor activity against human MV4-11 cells xenografted in SCID-beige mouse assessed as tumor growth inhibition at 30 mg/kg/day via osmotic pump for 2 weeks relative to control; assay type: functional; conditions: MV4-11, 336 h, read-out: TGI
[2] = Half life in mouse liver microsomes at 1 uM preincubated for 10 mins followed by NADP addition after 20 mins by LC-MS/MS analysis; assay type: ADME, microsome
MV4-11 [3] = experiment: Growth inhibition of human MV4-11 cells after 48 hrs by MTS assay; assay type: functional; conditions: MV4-11, 48 h
[4] = Metabolic stability in mouse liver microsomes assessed as parent compound remaining at 1 uM preincubated for 10 mins followed by NADP addition after 20 mins by LC-MS/MS analysis; assay type: ADME, microsome; conditions: read-out: Stability
THLE-2 = experiment: Growth inhibition of human THLE2 cells after 72 hrs by MTS assay; assay type: cell-based; conditions: thle-2, 72 h
[5] = Growth inhibition of human LAL-CUN-2 cells after 48 hrs by MTS assay; assay type: functional
[6] = Half life in human liver microsomes at 1 uM preincubated for 10 mins followed by NADP addition after 20 mins by LC-MS/MS analysis; assay type: ADME, microsome
[7] = Metabolic stability in human liver microsomes assessed as parent compound remaining at 1 uM preincubated for 10 mins followed by NADP addition after 20 mins by LC-MS/MS analysis; assay type: ADME, microsome
[8] = (§1) AUC (0 to 24 hrs) in RARG2-/-gammac-/- Balb/c mouse at […], iv administered as single dose by LC-MS/MS analysis; assay type: ADME, organism-based; set-up: time < 24 hr, dose 2.5 mg/kg, route intravenous; conditions: in vivo
MV4-11 [9] = experiment: Antitumor activity against human MV4-11 cells xenografted in RARG2-/-gammac-/- Balb/c mouse assessed as tumor growth inhibition at […], iv for 21 consecutive days starting from day 1 post tumor inoculation measured on day 23 relative to control; assay type: functional; conditions: MV4-11, iv, read-out: TGI
[10] = as §1; assay type: ADME, organism-based; set-up: dose 1.9 mg/kg, time < 24 hr, route intravenous; conditions: in vivo
[11] = Clearance in RARG2-/-gammac-/- Balb/c mouse at […], iv administered as single dose by LC-MS/MS analysis; assay type: ADME, organism-based; conditions: in vivo
[12] = Half life in RARG2-/-gammac-/- Balb/c mouse at […], iv administered as single dose by LC-MS/MS analysis; assay type: ADME, organism-based; conditions: in vivo
[13] = Volume of distribution at steady state in RARG2-/-gammac-/- Balb/c mouse at […], iv administered as single dose by LC-MS/MS analysis; assay type: ADME, organism-based; conditions: in vivo, read-out: Vdss
[14] = target: T1, Histone-lysine N-methyltransferase EHMT2 (Homo sapiens, UniProt Q96KQ7); experiment: Inhibition of G9a (unknown origin)
T1 sequence (Q96KQ7 whole entry): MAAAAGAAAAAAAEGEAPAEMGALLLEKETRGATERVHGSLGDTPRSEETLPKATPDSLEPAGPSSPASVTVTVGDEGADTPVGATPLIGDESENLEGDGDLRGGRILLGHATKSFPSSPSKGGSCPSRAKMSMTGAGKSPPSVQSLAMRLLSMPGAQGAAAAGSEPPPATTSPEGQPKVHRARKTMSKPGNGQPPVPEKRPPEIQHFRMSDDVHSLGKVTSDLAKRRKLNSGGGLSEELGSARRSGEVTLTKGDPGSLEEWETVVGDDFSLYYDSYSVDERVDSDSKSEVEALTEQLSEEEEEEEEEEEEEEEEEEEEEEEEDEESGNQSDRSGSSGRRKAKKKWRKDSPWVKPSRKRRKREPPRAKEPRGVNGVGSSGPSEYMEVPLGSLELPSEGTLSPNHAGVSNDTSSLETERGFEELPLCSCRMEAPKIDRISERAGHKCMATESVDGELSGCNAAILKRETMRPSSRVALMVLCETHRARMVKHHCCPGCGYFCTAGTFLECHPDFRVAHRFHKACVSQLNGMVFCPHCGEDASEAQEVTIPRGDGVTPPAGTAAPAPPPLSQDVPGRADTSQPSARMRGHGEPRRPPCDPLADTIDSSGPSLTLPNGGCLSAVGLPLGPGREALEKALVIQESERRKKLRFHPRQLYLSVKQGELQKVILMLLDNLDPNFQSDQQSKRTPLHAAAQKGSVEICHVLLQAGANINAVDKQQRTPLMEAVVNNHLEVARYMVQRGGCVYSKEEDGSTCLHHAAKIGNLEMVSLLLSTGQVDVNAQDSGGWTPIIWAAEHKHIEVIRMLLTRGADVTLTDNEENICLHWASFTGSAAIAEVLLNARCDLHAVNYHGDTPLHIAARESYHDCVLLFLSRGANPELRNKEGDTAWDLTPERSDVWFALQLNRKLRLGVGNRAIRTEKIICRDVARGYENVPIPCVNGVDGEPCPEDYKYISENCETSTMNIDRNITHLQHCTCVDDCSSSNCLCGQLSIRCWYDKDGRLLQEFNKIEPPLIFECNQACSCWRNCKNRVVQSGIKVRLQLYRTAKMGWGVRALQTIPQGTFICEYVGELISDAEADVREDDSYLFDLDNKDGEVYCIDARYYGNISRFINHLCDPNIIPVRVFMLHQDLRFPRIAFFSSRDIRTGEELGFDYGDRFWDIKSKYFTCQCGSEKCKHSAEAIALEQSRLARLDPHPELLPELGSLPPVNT

[15] = target: T1, Histone-lysine N-methyltransferase EHMT2; experiment: Inhibition of human G9a using biotinylated-H3K9 peptide as substrate after 1 hr in presence of SAM by TR-FRET assay
[16] = target: T2, DNA (cytosine-5)-methyltransferase 1 (Homo sapiens, UniProt P26358); experiment: Inhibition of human DNMT1 using polydeoxyinosine polydeoxycytosine DNA as substrate after 15 mins in presence of SAM by TR-FRET assay
T2 sequence (P26358 whole entry): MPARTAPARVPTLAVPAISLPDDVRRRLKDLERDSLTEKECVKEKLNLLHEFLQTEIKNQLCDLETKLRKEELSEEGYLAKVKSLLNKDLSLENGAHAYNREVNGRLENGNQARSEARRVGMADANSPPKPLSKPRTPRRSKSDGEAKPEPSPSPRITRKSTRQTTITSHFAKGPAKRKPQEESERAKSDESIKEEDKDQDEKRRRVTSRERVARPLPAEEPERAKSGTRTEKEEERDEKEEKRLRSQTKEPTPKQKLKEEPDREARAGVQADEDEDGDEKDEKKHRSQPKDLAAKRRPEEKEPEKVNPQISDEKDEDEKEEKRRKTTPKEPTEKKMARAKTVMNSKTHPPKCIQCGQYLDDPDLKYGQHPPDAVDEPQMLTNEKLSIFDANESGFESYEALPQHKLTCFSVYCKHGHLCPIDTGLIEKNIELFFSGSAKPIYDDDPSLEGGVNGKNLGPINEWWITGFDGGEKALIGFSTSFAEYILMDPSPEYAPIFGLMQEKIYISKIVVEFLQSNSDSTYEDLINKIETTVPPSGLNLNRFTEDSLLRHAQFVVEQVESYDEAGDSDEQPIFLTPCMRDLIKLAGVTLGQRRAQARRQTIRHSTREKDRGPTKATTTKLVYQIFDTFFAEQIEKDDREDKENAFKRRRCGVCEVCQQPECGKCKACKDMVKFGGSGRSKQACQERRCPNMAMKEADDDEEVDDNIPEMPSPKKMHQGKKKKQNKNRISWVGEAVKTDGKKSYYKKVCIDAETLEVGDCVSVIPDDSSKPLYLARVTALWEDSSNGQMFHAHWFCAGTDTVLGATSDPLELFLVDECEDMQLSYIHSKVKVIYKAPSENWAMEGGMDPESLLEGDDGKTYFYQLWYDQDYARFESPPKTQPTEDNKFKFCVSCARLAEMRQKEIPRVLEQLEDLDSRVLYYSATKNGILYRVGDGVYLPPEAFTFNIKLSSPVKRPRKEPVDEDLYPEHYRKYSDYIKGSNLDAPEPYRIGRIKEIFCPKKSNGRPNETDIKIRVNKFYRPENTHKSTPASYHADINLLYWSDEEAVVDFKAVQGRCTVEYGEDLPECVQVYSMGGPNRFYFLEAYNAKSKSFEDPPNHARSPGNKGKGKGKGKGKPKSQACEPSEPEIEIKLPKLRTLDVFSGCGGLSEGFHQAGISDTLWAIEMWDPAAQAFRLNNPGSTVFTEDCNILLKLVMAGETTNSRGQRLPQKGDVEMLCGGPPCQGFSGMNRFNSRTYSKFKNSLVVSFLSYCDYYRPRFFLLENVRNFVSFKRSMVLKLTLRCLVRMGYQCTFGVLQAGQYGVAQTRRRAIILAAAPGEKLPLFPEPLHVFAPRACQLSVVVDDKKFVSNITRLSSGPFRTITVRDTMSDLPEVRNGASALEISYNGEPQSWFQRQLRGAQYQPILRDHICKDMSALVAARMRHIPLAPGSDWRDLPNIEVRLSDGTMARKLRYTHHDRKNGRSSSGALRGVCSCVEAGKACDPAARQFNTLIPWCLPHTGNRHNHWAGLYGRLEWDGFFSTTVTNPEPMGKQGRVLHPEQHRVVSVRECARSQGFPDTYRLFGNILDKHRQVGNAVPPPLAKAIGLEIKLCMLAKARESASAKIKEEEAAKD

[17] = AUC (0 to 24 hrs) in RARG2-/-gammac-/- Balb/c mouse at 5 mg/kg, ip administered as single dose by LC-MS/MS analysis; assay type: ADME, organism-based; set-up: time < 24 hr, dose 5 mg/kg, route intraperitoneal; conditions: in vivo
[18] = target: T1, Histone-lysine N-methyltransferase EHMT2; experiment: Competitive inhibition of human G9a using 40 to 2560 nM biotinylated-H3K9 peptide as substrate after 1 hr in presence of SAM by TR-FRET assay
[19] = Growth inhibition of human CEMO1 cells after 48 hrs by MTS assay; assay type: functional
[20] = target: T1, Histone-lysine N-methyltransferase EHMT2; experiment: Non-competitive inhibition of human G9a using biotinylated-H3K9 peptide as substrate after 1 hr in presence of 2 to 640 uM SAM by TR-FRET assay
[21] = target: T2, DNA (cytosine-5)-methyltransferase 1; experiment: Competitive inhibition of human DNMT1 using 1 to 100 ug/ml polydeoxyinosine polydeoxycytosine DNA as substrate after 15 mins in presence of SAM by TR-FRET assay
[22] = target: T2, DNA (cytosine-5)-methyltransferase 1; experiment: Non-competitive inhibition of human DNMT1 using polydeoxyinosine polydeoxycytosine DNA as substrate after 15 mins in presence of 1 to 20 uM SAM by TR-FRET assay
[23] = target: T3, Histone-lysine N-methyltransferase EHMT1 (Homo sapiens, UniProt Q9H9B1); experiment: Inhibition of recombinant human GLP using histone H3 peptide as substrate after 120 mins in presence of [3H]SAM by radiometric assay
T3 sequence (Q9H9B1 whole entry): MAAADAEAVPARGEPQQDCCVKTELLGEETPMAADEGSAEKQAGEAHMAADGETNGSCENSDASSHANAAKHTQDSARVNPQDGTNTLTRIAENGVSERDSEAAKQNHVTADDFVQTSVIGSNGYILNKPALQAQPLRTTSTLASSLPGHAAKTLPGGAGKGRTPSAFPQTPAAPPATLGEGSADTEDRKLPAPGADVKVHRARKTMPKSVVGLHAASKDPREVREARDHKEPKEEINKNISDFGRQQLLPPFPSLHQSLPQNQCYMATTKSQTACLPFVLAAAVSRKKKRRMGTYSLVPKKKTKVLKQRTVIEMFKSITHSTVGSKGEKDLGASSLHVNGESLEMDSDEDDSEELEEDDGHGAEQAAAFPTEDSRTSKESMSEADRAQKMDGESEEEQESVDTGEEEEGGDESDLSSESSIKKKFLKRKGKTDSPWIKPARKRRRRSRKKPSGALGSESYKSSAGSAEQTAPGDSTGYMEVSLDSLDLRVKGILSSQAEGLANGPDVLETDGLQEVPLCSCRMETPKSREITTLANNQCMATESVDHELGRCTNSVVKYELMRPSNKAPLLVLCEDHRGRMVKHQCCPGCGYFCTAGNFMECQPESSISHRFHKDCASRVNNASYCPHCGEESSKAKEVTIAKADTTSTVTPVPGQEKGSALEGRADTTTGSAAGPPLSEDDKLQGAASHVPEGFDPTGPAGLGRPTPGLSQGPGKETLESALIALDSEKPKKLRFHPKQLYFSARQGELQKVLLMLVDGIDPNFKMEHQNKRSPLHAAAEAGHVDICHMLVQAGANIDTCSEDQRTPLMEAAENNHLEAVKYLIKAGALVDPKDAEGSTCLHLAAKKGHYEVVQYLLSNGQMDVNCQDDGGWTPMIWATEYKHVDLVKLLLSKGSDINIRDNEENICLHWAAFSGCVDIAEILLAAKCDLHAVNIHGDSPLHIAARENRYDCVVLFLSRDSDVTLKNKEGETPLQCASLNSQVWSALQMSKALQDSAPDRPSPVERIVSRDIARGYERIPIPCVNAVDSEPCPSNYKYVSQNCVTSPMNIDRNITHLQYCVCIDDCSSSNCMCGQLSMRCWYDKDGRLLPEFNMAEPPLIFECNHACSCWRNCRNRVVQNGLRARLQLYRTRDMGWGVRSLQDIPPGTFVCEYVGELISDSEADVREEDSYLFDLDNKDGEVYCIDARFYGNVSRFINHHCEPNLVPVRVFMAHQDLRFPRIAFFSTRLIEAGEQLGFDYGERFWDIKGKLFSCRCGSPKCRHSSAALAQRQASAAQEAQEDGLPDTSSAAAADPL

OCI-Ly3 = experiment: Growth inhibition of human OCI-LY3 cells at 1 uM after 48 hrs by MTS assay relative to control; assay type: functional; conditions: OCI-Ly3, 48 h, read-out: GI
OCI-Ly10 = experiment: Growth inhibition of human OCI-LY10 cells at 1 uM after 48 hrs by MTS assay relative to control; assay type: functional; conditions: OCI-Ly10, 48 h, read-out: GI

COc1cc2c(cc1OCCCN1CCCC1)N=C(N)C21CCC1
inhibition in vivo at 30 mg/kg/day (MV4-11 [1]): 45%

COc1cc2c(NC3CCN(C)CC3)cc(-c3ccc(C)o3)nc2cc1OCCCN1CCCC1
half-life at 1 µM [2]: 0.6 h | GI50 (MV4-11 [3]): 0.269 µM | remaining at 20 min, 1 µM [4]: 70.9% | LC50 (THLE-2): 1.78 µM | GI50 [5]: 0.664 µM | half-life at 1 µM ([6]; liver microsomes): > 2.4 h | remaining at 20 min, 1 µM ([7]; liver microsomes, read-out: Stability): 99.7% | AUC(0-t) at 24 h [8]: 1.49 µM·h | inhibition in vivo at […] (MV4-11 [9]): 70%

CCc1ccc(-c2cc(NC3CCN(C)CC3)c3cc(OC)c(OCCCN4CCCC4)cc3n2)o1
AUC(0-t) at 24 h [10]: 0.505 µM·h | half-life at 1 µM [2]: 0.2 h | remaining at 20 min, 1 µM [4]: 16.9% | clearance [11]: 98.3 mL/min/kg | GI50 [5]: 0.577 µM | t1/2 ([6]; microsomes, 20 min, 1 µM): 1.6 h | half-life [12]: 13.2 h | Stability ([7]; microsomes, 20 min, 1 µM): 67.1% | Vd [13]: 88.5 L/kg

Cc1cc(Nc2ccc(NC(=O)c3ccc(Nc4ccnc5ccccc45)cc3)cc2)nc(N)n1
IC50 [14]: 59 µM | IC50 [15]: > 10 µM

COc1cc2c(NC3CCN(C(C)C)CC3)nc(N3CCC(F)(F)CC3)nc2cc1OCCCN1CCCC1
IC50 [16]: > 50 µM | AUC(0-t) at 24 h [17]: 2.31 µM·h

COc1cc2c(NC3CCN(C(C)C)CC3)cc(C3CCCCC3)nc2cc1OCCCN1CCCC1
IC50 [18]: 0.0007 to 0.029 µM | GI50 [19]: > 10 µM | IC50 [20]: 0.0005 to 0.002 µM | IC50 [21]: 1.4 to 10 µM | GI50 (MV4-11 [3]): > 10 µM | IC50 [22]: 1.4 to 2.4 µM | LC50 (THLE-2): 83.8 µM | IC50 [23]: 0.18 µM | inhibition of growth at 1 µM (OCI-Ly3): 0% | IC50 [16]: 0.619 µM | IC50 [15]: 0.0007 µM | inhibition of growth at 1 µM (OCI-Ly10): 0%
